Key:
[1] = target: T1, hyaluronidase taken from bovine testicles (Bos taurus, UniProt Q2YDK3); experiment: Effect on hyaluronidase activity; format: biochemical; details: concentration range 0.01-0.3 mM; bovine testicular hyaluronidase, pH 3.5
T1 construct: purchased Sigma Co; host or cells: bovine testicles
T1 sequence (Q2YDK3 36-553): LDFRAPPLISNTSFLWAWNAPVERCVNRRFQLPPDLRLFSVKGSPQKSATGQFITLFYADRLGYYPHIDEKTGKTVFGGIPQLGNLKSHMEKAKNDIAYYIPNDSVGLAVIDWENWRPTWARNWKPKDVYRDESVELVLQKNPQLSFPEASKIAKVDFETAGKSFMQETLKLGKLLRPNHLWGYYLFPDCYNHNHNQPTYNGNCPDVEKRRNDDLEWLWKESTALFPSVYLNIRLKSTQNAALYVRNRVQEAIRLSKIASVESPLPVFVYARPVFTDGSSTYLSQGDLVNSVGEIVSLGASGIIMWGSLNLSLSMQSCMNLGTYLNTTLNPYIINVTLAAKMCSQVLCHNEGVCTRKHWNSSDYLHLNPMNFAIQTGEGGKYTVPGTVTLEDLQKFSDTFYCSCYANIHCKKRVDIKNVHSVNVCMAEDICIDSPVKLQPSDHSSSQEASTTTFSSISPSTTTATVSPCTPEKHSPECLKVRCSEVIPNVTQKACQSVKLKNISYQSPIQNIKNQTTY
Protocol: 0.8 mg/ml of a hyaluronidase (a product of Sigma Co.) taken from bovine testicles was used as an enzyme. Test compounds (compound Nos. 1, 2, 4, 7, 8, 9 and 13) were dissolved at various concentrations in a 1 M acetate buffer (pH 3.5) and heated at 37° C. for 20 minutes. Then, calcium chloride was added to each of the resulting solutions so that the calcium chloride concentration became 5 mM, and each of the resulting mixtures was heated at 37° C. for 20 minutes.
Thereto was added potassium hyaluronate so that its concentration in the buffer became 2.4 mg/ml, and the mixture was heated at 37° C. for 40 minutes.
After the termination of the reaction, the amount of the substrate hydrolyzed was determined at 585 nm using the Elson-Morgan's procedure, from which there were determined the effects of each test compound at various concentrations on the normal enzymatic reaction.

[2] = system: rat gastric mucosa; format: in vivo; details: 50 mg/kg p.o.
Protocol: The compound No. 1 of the present invention and two known cyclooxygenase inhibitors, i.e. Indometacin and Piroxicam were examined for action on rat gastric mucosa. That is, the compound No. 1, Indometacin or Piroxicam was administered orally to male SD rats (body weight: 200-250 g) which had been fasted for 24 hours. After the administration, the rats were allowed to no food and no water for 48 hours. Then, the stomach of each rat was removed under ether anesthesia and fixed with formalin. The resulting stomach was incised and the length of the mucous ulcer generated in the glandular portion of the stomach was measured using a dissecting microscope (magnification of 10).

[3] = system: male ddy mice; experiment: Acute toxicity by intravenous injection; format: in vivo; details: 10-500 mg/kg, 10 mice per group
Protocol: The compound of the present invention was further tested for acute toxicity by intravenous injection using male ddy mice. There was no death when the compound No. 1 of the present invention was administered in an amount of 10-500 mg/kg (each group consisted of 10 mice).

[4] = system: rat peritoneal mast cells; experiment: Histamine liberation from rat peritoneal mast cells by concanavalin A; format: cell-based; details: Mast cell, test compound 0.2 mM, phosphatidylserine 3.0 μg/ml
Protocol: This test was effected in accordance with the method of R. P. Siraganian [J. Immunol., 114, 886 (1974)]. That is, a Locke solution containing phosphatidylserine, a test compound and a suspension of rat peritoneal mast cells was heated for 20 minutes at 37° C. Incidentally, the concentrations of phosphatidylserine and the test compound in the Locke solution were 3.0 μg/ml and 0.2 mM, respectively. A concanavalin A solution was added to the Locke solution, and the mixture was subjected to a reaction for 10 minutes at 37° C. After ice-cooling, the reaction mixture was subjected to centrifugation for 10 minutes at 4° C. Both the supernatant and the precipitate were measured for histamine content by the method of Shore et al. [J. Exp. Ther., 127, 182 (1959)] to determine a ratio of histamine liberated.

[5] = system: rat plantar edema induced by carrageenin; experiment: Action against rat plantar edema induced by carrageenin; format: in vivo
Protocol: Male Sprague-Dawley rats weighing 200-250 g were injected s.c. (subcutaneously) with 0.1 ml of carrageenin into the subplantar region of the right hind paw. 60 minutes before the carrageenin administration, a test compound (compound No. 1) had been administered p.o. (orally). […] Thus, the anti-inflammatory effect of the compound of the present invention was proven in this animal test.

[6] = system: rat 48-hour homologous PCA reaction; experiment: Rat 48-hour homologous PCA reaction; format: in vivo; details: 200 mg/kg p.o. 60 minutes before antigen; for Amount of colorant which leaked out: control 9.7 ± 1.9
Protocol: Male SD rats weighing 200-250 g were injected with 0.1 ml of a rat anti-egg albumin serum diluted with a physiological saline solution, intradermally at the back in order to passively sensitize the rats. After 48 hours, 0.5 ml of 1% Evans Blue containing 5 mg of antigen (egg albumin) was administered intravenously. After 30 minutes, each rat was sacrificed by bleeding and the skin was peeled off. Then, the amount of the coloring material in the lesion was determined by the method of Katayama et al. [Microbial. Immunol., 122 (2), 89 (1987)]. Incidentally, each test compound had been administered orally 60 minutes before the antigen administration.

[7] = system: rat peritoneal mast cells; details: 0.3 mM; concanavalin A; Chem. Pharm. Bull., 33 (9), 3738 (1985); cited from earlier work
[8] = target: T1, hyaluronidase taken from bovine testicles; details: Chem. Pharm. Bull., 33 (9), 3738 (1985), read-out: "50% enzyme inhibition" concentration; cited from earlier work

## CN1C(C(=O)Nc2ccccc2)=C(O)c2ccccc2S1(=O)=O [4-hydroxy-2-methyl-N-(phenyl)-2H-1,2-benzothiazine-3-carboxamido-1,1-dioxide]
[1]
  effect on hyaluronidase activity: no effect

## COc1ccc2c(c1)c(CC(=O)O)c(C)n2C(=O)c1ccc(Cl)cc1 [Indometacin]
[2]
  ulcer formation, in words: very serious ulcer
[2]; rats fasted 24 hours, 48 hours after administration
  Ulcer index mean S.E.: 42.8 ± 8.7

## CN1C(C(=O)Nc2ccccc2-c2nn[nH]n2)=C(O)c2ccccc2S1(=O)=O [No. 1, 4-hydroxy-2-methyl-N-[2'-(tetrazo-5"-yl)phenyl]-2H-1,2-benzothiazine-3-carboxamido-1,1-dioxide]
[3]
  death in acute toxicity test: no death
[4]
  inhibition at 200 µM: 93.9%
[5]; 200 mg/kg p.o. 60 min before carrageenin, 30 minutes after carrageenin administration, control 18.2%
  swelling percent: 8.0%
[5]; 200 mg/kg p.o., 1, 1.5, 2 and 3 hours after carrageenin administration
  inhibition (%) of edema, in words: About the same inhibition
[5]; 200 mg/kg p.o., 30 minutes after carrageenin administration
  inhibition of edema: 54%
[6]
  Suppression (%): 65.1%
  Amount of colorant which leaked out: 3.4 ± 1.3 μg/site

## CN1C(C(=O)Nc2ccccc2C(=O)O)=C(O)c2ccccc2S1(=O)=O [No. 2, 4-Hydroxy-2-methyl-N-(2'-carboxyphenyl)-2H-1,2-benzothiazine-3-carboxamido-1,1-dioxide]
[4]
  inhibition at 200 µM: 81.3%
[6]
  Suppression (%): 29.3%
  Amount of colorant which leaked out: 6.8 ± 2.3 μg/site

## CN1C(C(=O)Nc2ccc(Cl)cc2C(=O)O)=C(O)c2ccccc2S1(=O)=O [No. 3, 4-Hydroxy-2-methyl-N-(2'-carboxy-4'-chlorophenyl)-2H-1,2-benzothiazine-3-carboxamido-1,1-dioxide]
[4]
  inhibition at 200 µM: 65%

## CN1C(C(=O)Nc2cc(Cl)ccc2C(=O)O)=C(O)c2ccccc2S1(=O)=O [No. 4, 4-Hydroxy-2-methyl-N-(2'-carboxy-5'-chlorophenyl)-2H-1,2-benzothiazine-3-carboxamido-1,1-dioxide]
[4]
  inhibition at 200 µM: 85.1%

## Cc1cccc(NC(=O)C2=C(O)c3ccccc3S(=O)(=O)N2C)c1C(=O)O [No. 5, 4-Hydroxy-2-methyl-N-(2'-carboxy-3'-methylphenyl)-2H-1,2-benzothiazine-3-carboxamido-1,1-dioxide]
[4]
  inhibition at 200 µM: 85.2%

## Cc1ccc(NC(=O)C2=C(O)c3ccccc3S(=O)(=O)N2C)c(C(=O)O)c1 [No. 6, 4-Hydroxy-2-methyl-N-(2'-carboxy-4'-methylphenyl)-2H-1,2-benzothiazine-3-carboxamido-1,1-dioxide]
[4]
  inhibition at 200 µM: 63%

## CN1C(C(=O)Nc2ccc(O)cc2C(=O)O)=C(O)c2ccccc2S1(=O)=O [No. 7, 4-Hydroxy-2-methyl-N-(2'-carboxy-4'-hydroxyphenyl)-2H-1,2-benzothiazine-3-carboxamido-1,1-dioxide]
[4]
  inhibition at 200 µM: 86%

## CN1C(C(=O)Nc2c(O)cccc2C(=O)O)=C(O)c2ccccc2S1(=O)=O [No. 8, 4-Hydroxy-2-methyl-N-(2'-carboxy-6'-hydroxyphenyl)-2H-1,2-benzothiazine-3-carboxamido-1,1-dioxide]
[4]
  inhibition at 200 µM: 83.7%

## CN1C(C(=O)Nc2cc([N+](=O)[O-])ccc2C(=O)O)=C(O)c2ccccc2S1(=O)=O [No. 9, 4-Hydroxy-2-methyl-N-(2'-carboxy-5'-nitrophenyl)-2H-1,2-benzothiazine-3-carboxamido-1,1-dioxide]
[4]
  inhibition at 200 µM: 106%

## CN1C(C(=O)Nc2cccc(C(=O)O)c2)=C(O)c2ccccc2S1(=O)=O [No. 10, 4-Hydroxy-2-methyl-N-(3'-carboxyphenyl)-2H-1,2-benzothiazine-3-carboxamido-1,1-dioxide]
[4]
  inhibition at 200 µM: 90.7%

## CN1C(C(=O)Nc2ccc(C(=O)O)cc2)=C(O)c2ccccc2S1(=O)=O [No. 11, 4-Hydroxy-2-methyl-N-(4'-carboxyphenyl)-2H-1,2-benzothiazine-3-carboxamido-1,1-dioxide]
[4]
  inhibition at 200 µM: 60.3%

## CN1C(C(=O)Nc2ccccn2)=C(O)c2ccccc2S1(=O)=O [Piroxicam]
[1]
  effect on hyaluronidase activity: no effect

## COc1ccc(/C=C/C(=O)Nc2ccccc2C(=O)O)cc1OC [Tranilast]
[7]
  inhibition of histamine liberation: about 20%
[8]
  IC50: ~230 µM

Source: patent US5004742A, “Benzothiazine-1,1-dioxide derivatives” (Nippon Hypox Laboratories Incorporated, priority 1989, dated 1991)
